Measured values as given in publication PMC6930638, “The Masked Polar Group Incorporation (MPGI) Strategy in Drug Design: Effects of Nitrogen Substitutions on Combretastatin and Isocombretastatin Tubulin Inhibitors” (Molecules, 2019).
Where two headings read alike, the source gives them in different places. Each block holds one compound with its values, some of them ahead of it.

Legend:
[1] = system: Bovine brain microtubule protein (MTP); set-up: method as in PMID 26092446; conditions: comparison values in text; read-out: TPI IC50; cited from earlier work
[2] = system: Bovine brain microtubule protein (MTP); assay: Tubulin polymerization inhibition assay (turbidimetry); type: biochemical; conditions: 1.5 mg/mL MTP; IC50 calculated only if more than 50% inhibition at 20 µM; read-out: TPI IC50
[3] = system: HT-29 colon adenocarcinoma; assay: MTT cell antiproliferative assay, HT-29 (without or with verapamil); type: cell-based, human
Procedure: The in vitro antiproliferative activity of the synthesized compounds was evaluated by a colorimetric reaction, using the MTT reagent. They were tested against three different human tumor cell lines: HeLa cervix epithelioid carcinoma, HT-29 colon adenocarcinoma, and MCF-7 breast adenocarcinoma. […] Moving the alkylamino substituent from a para to a meta position with respect to the bridge results in potency reduction, except for the phenstatin analogue 1f. However, the introduction of a nitrogen atom to form 2-dimethylaminopyridine derivatives entails a loss of activity, both for phenstatin analogues (1b, 2b), while for isocombretastatins, it only involves a 2–3 times potency decrease (3b). For combretastatins, it implies an improvement in the cytotoxicity values down to tenths of nanomolar (8b). […] On the other hand, the best 2-dimethylaminopyridine was combretastatin 8b. All ammonium salts derivatives were not cytotoxic at micromolar concentrations.
As observed in Table 1, there are no significant changes in the IC50 values for most compounds, except for combretastatins 8a and 8i.
Acquired resistance to antitumor drugs is one of the more important problems of chemotherapy, also affecting tubulin-targeting drugs. In order to ascertain the impact of multidrug resistance phenotypes on the action of the compounds, we have measured the cell proliferation inhibitory activity of HT-29 cells in the presence of verapamil, a known P-glycoprotein 1/multidrug resistance protein 1 (MDR1) inhibitor at a concentration of 10 µM, not affecting cell proliferation. […] Except for the combretastatin analogues 8a and 8i, the affected drugs are all pyridine drugs.
HeLa (human cervical carcinoma) and MCF-7 (human breast carcinoma) cell lines were cultured in Dulbecco’s Modified Eagles Medium (DMEM) supplemented with 2 mM L-glutamine (Lonza-Cambrex, Karlskoga, Sweden), 10% (v/v) heat inactivated fetal bovine serum (HIFBS) (Lonza-Cambrex) and 100 μg/mL streptomycin-100 IU/mL penicillin (Lonza-Cambrex) at 37 °C in humidified 95% air and 5% CO2. HT-29 (human colon carcinoma) cells were cultured at 37 °C in complete RPMI 1640 medium containing 2 mM L-glutamine, 10% (v/v) HIFBS and 100 μg/mL streptomycin-100 IU/mL penicillin in humidified 95% air and 5% CO2 atmosphere.
The effect of the different compounds on the proliferation of human cell lines was determined by using the MTT (3-[4,5-dimethylthiazol-2-yl]-2,5-diphenyltetrazolium bromide) reagent (MTT Thiazolyl Blue Tetrazolium Bromide, Sigma-Aldrich, St. Louis, MO, USA) dissolved in PBS 5 mg/mL. Cell viability was evaluated seeding 100 µL of cells in exponential growth phase with appropriate cell line concentration (1.5 × 10^4 HeLa and MCF-7 cells/mL and 3 × 10^4 HT-29 cells/mL) in complete medium in 96-well plates at 37 °C and 5% CO2. After 24 h incubation to allow cells to attach to the plates the ligands were added at different concentrations from 10^−5 to 10^−9 M. The effect on the proliferation was evaluated 72 h post-treatment by adding the MTT reagent (10 µL/well) to a final concentration of 0.5 mg/mL and the plate was further incubated for another 3 h. After this period, the supernatant was removed, the MTT violet crystals formed on the bottom of each well were dissolved in DMSO (100 µL/well) and subsequently, the absorbance of the color complex was read at 570 nm using a multi-well plate reader. Compounds were dissolved in dimethyl sulfoxide (DMSO) and the final solvent concentrations never exceeded 0.5% (v/v). The control wells included treated cells with 0.5% (v/v) DMSO and the positive control. Measurements were performed in triplicate, and each experiment was repeated three times. […] Nonlinear curves fitting the experimental data were carried out for each compound.

[4] = system: HeLa cervix epithelioid carcinoma; assay: MTT cell antiproliferative assay, HeLa; type: cell-based; conditions: Homo sapiens, 72 h
[5] = system: MCF-7 breast adenocarcinoma; assay: MTT cell antiproliferative assay, MCF-7; type: cell-based; conditions: Homo sapiens, MCF7, 72 h
[6] = system: HeLa, HT-29 and MCF-7 human tumor cell lines; assay: Antiproliferative activity over the three human tumor cell lines (MTT); type: cell-based; conditions: Homo sapiens, range over the cell lines, Table S1; read-out: Cytotoxicity range (range of antiproliferative IC50 values)
[7] = system: rat primary pancreatic cells; assay: Toxicity against rat primary pancreatic cells (MTT); conditions: 7 h
Procedure: The toxicity of the compounds against rat primary pancreatic cells was evaluated by the MTT protocol (Table 2). […] Sodium taurocholate (NaTc) was also used at high concentrations as a model of acute pancreatitis in vitro.
Rat primary pancreatic cells were isolated as previously described. Afterwards, pancreatic cells were resuspended in Na-HEPES solution (pH 7.4) containing 14 mM glucose, 1% essential amino acid mixture, 1% (w/v) BSA, 0.01% (w/v) STI, 0.5 mM CaCl2 and incubated (5% CO2, at 37 °C) for 7 h in the absence (non-treated control) or the presence of compounds at different concentrations. After the treatment, cells were incubated (5% CO2, at 37 °C) with 0.5 mg/mL MTT for 2 h and the formazan crystals were solubilized with DMSO (v/v). The optical density was read at 570 nm with a reference wavelength of 630 nm. Non-treated cell viability was set as 100%.

SMILES: COc1ccc(/C=C\c2cc(OC)c(OC)c(OC)c2)cc1O [CA-4, Combretastatin A4, reference compound]
IC50 [1]: 1000 to 4000 nM

IC50 [2]: 3400 nM
improvement of HT-29 IC50 after verapamil treatment ([3]; 10 µM verapamil): > 2 fold
IC50 ([3]; Homo sapiens, HT-29, MTT, 72 h): 503 nM
IC50 [4]: 208 nM
IC50 [5]: 273 nM
SMILES: COc1cc(C=Cc2ccc(N(C)C)cc2)cc(OC)c1OC [Compound 8a, N,N-dimethyl-4-(3,4,5-trimethoxystyryl)aniline]
IC50 [1]: 3400 nM
IC50 [6]: 102 to 503 nM

SMILES: COc1cc([C@@H]2c3cc4c(cc3[C@@H](O[C@@H]3O[C@@H]5CO[C@@H](C)O[C@H]5[C@H](O)[C@H]3O)[C@H]3COC(=O)[C@H]23)OCO4)cc(OC)c1O [Etoposide, etoposide, reference compound]
live cells with respect to the non-treated control (means ± S.E.M.) ([7]; rat, 0.05 µM, pH 7.4): 89.87 ± 11.80%

SMILES: C[C@H](CCC(=O)NCCS(=O)(=O)O)[C@H]1CC[C@H]2[C@@H]3[C@H](O)C[C@@H]4C[C@H](O)CC[C@]4(C)[C@H]3C[C@H](O)[C@]12C [NaTc, Sodium taurocholate, reference compound]
live cells with respect to the non-treated control (means ± S.E.M.) ([7]; 0.50%): 24.83 ± 11.86%
